In ChEMBL document CHEMBL1201862, “PubChem BioAssay data set” (2004):
Values joined by “and” are separate entries in the source; they are usually repeats but may differ in a detail not shown here. Identical values can stand only once. Active and inactive are the calls of the source.

Tests used:
[1] = target: Voltage-gated inwardly rectifying potassium channel KCNH2 (Homo sapiens, UniProt Q12809); settings: Potency;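 note: confirmatory quantitative high-throughput screen measuring inhibition of hERG channel activity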
Voltage-gated inwardly rectifying potassium channel KCNH2, sequence (Q12809 whole entry): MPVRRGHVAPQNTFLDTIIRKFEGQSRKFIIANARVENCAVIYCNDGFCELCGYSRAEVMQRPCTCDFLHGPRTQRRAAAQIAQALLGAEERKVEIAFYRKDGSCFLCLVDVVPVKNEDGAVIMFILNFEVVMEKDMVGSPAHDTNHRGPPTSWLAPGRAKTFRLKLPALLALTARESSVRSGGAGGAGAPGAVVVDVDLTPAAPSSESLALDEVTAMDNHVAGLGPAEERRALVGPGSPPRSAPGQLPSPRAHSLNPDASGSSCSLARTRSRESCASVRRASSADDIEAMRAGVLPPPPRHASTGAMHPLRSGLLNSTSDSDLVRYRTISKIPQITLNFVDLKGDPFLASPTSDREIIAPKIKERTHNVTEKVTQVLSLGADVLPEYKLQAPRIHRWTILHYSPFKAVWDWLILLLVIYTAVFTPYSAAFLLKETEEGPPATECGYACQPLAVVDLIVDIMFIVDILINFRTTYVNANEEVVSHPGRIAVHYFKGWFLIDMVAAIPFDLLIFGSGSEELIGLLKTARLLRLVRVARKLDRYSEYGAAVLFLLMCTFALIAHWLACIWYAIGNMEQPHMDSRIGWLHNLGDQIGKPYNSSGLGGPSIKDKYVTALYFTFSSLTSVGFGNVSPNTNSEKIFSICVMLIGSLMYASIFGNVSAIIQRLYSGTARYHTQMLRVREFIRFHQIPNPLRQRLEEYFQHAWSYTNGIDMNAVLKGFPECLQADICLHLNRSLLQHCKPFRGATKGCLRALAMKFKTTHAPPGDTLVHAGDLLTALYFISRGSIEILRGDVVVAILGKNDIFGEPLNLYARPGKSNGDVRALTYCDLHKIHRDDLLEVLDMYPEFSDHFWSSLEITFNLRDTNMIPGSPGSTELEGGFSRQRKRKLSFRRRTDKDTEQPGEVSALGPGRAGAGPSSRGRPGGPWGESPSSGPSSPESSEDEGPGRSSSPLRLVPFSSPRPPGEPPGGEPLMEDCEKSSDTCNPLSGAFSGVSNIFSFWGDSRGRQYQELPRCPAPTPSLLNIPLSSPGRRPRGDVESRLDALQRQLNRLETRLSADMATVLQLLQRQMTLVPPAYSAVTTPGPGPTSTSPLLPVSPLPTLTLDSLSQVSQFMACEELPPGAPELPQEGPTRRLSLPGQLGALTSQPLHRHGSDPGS

[2] = target: 5-hydroxytryptamine receptor 2A (Mus musculus, UniProt P35363); format: functional, cell-based;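 note: CHO-K1 cells with tagged receptor and beta-arrestin; agonist potency measured as compound-induced activation of the receptor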
5-hydroxytryptamine receptor 2A, sequence (P35363 whole entry): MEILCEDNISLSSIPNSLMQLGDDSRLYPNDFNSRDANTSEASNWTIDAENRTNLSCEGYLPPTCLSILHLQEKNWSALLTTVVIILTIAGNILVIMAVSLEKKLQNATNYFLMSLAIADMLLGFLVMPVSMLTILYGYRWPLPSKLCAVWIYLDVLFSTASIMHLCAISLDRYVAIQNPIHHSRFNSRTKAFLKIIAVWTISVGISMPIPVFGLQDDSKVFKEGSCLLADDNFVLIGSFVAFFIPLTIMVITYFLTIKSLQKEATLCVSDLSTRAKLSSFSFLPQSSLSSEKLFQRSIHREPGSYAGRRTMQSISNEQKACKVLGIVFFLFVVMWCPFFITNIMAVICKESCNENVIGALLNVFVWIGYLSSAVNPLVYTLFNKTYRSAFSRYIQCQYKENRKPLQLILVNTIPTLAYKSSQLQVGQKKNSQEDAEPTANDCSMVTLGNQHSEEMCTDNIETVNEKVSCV

Mu-type opioid receptor = Mu-type opioid receptor (Homo sapiens, UniProt P35372); format: functional, cell-based;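 note: U2OS cells with beta-arrestin recruitment to OPRM1 by beta-gal complementation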
Mu-type opioid receptor, sequence (P35372 whole entry): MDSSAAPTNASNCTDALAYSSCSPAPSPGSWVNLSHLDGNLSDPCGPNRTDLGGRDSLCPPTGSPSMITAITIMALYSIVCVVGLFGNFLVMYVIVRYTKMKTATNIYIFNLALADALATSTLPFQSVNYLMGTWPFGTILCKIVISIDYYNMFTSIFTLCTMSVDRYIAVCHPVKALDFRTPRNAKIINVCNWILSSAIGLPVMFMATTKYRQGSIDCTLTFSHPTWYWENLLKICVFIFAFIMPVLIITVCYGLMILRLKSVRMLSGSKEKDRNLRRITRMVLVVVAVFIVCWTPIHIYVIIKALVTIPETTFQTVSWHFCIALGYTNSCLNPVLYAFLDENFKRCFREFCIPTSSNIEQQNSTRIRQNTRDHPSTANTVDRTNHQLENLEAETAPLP

Cytochrome P450 3A4 = Cytochrome P450 3A4 (Homo sapiens, UniProt P08684);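 note: CYP3A4 tested as one member of a cytochrome P450 panel screen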
Cytochrome P450 3A4, sequence (P08684 whole entry): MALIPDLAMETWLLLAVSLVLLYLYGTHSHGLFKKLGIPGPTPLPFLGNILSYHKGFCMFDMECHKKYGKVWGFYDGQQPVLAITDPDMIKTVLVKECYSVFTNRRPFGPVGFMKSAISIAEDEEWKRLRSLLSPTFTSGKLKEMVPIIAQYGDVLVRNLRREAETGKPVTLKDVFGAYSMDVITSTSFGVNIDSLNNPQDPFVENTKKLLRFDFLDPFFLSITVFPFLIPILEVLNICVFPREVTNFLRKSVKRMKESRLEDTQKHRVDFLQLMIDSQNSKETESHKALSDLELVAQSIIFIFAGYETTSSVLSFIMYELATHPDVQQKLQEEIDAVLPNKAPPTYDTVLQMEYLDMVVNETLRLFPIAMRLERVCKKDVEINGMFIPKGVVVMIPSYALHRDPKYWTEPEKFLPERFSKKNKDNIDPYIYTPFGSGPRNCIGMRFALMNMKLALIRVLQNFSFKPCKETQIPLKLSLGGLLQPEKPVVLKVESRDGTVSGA

[3] = target: T1, Nuclear receptor subfamily 0 group B member 1 (Homo sapiens, UniProt P51843); assay: Luminescence-based cell-based high throughput dose response assay for inhibitors of the orphan nuclear receptor subfamily 0, group B, member 1 (DAX1; NR0B1). [Related pubchem assays (depositor defined):AID504766, AID504790]; format: functional
T1 sequence (P51843 whole entry): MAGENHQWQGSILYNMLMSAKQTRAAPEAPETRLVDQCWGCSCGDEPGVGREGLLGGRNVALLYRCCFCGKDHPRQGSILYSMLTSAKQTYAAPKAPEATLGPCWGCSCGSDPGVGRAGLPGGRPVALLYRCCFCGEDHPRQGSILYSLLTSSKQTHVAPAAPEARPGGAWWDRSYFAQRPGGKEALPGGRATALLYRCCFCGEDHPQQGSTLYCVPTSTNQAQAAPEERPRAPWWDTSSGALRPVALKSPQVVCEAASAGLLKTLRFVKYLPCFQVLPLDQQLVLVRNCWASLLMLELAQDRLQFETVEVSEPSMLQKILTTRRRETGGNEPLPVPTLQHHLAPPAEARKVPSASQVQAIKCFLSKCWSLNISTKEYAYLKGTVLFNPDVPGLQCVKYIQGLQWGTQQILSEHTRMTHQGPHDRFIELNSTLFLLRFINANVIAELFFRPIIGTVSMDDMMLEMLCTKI

HEK293 = assay: cells; format: functional, cell-based; settings: Homo sapiens
Caspase-3 = target: T2, Caspase-3 (Homo sapiens, UniProt P42574); format: functional;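 note: Dose-response selectivity test against caspase-3 for candidate inhibitors of sentrin-specific proteases (SENPs)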
T2 sequence (P42574 whole entry): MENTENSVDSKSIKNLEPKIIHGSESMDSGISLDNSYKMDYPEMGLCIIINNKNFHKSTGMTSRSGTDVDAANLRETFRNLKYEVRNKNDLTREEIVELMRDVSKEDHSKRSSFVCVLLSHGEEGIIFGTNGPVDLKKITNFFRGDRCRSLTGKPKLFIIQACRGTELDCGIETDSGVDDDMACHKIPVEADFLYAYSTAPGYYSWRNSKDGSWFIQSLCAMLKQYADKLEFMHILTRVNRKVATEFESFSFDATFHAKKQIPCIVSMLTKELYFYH

[4] = target: T3, Sentrin-specific protease 8 (Homo sapiens, UniProt Q96LD8); format: functional;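 note: luminescence read-out of SENP8 inhibition, dose-response confirmation following an ultra-high-throughput screen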
T3 sequence (Q96LD8 whole entry): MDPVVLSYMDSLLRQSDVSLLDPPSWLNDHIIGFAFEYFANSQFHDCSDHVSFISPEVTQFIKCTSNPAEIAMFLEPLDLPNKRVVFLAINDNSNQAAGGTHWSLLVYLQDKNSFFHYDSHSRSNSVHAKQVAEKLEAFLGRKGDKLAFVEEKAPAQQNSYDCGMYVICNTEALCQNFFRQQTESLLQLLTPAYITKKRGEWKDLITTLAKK

[5] = target: T4, Sentrin-specific protease 6 (Homo sapiens, UniProt Q9GZR1); format: functional;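 note: Luminescence-based dose-response confirmatory assay of SENP6 inhibition, following up an ultra-high-throughput screen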
T4 sequence (Q9GZR1 whole entry): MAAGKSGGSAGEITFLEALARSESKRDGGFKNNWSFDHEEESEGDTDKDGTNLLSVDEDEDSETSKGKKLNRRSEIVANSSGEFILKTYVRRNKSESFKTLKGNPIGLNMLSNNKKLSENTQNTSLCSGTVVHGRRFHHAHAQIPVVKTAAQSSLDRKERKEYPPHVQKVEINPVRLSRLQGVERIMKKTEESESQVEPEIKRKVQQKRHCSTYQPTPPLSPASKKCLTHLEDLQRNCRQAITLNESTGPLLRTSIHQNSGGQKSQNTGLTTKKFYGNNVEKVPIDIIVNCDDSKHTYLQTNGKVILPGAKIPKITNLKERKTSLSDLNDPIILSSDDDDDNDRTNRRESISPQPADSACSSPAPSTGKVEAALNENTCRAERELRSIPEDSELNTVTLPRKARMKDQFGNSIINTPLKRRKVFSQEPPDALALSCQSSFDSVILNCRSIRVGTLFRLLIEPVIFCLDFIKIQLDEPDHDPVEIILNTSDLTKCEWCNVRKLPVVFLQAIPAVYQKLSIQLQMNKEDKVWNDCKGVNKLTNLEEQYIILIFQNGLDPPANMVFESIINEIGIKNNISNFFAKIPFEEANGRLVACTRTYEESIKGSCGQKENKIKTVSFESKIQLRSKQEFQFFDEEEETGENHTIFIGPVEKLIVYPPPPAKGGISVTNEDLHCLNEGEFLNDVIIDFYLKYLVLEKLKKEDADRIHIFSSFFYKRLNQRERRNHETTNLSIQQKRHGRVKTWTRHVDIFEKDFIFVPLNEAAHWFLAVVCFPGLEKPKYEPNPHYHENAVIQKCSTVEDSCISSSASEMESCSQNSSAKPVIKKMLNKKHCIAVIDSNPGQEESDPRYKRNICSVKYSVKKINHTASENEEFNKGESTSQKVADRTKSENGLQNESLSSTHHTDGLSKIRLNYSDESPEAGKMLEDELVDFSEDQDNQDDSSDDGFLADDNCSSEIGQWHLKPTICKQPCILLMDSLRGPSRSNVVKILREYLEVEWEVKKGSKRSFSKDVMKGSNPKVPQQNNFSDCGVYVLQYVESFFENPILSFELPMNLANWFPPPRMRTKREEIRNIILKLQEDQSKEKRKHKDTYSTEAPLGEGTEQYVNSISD

[6] = target: T5, Sentrin-specific protease 7 (Homo sapiens, UniProt Q9BQF6); format: functional;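 note: Luminescence-based dose-response confirmation of ultra-high-throughput screening hits, measuring inhibition of SENP7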
T5 sequence (Q9BQF6 whole entry): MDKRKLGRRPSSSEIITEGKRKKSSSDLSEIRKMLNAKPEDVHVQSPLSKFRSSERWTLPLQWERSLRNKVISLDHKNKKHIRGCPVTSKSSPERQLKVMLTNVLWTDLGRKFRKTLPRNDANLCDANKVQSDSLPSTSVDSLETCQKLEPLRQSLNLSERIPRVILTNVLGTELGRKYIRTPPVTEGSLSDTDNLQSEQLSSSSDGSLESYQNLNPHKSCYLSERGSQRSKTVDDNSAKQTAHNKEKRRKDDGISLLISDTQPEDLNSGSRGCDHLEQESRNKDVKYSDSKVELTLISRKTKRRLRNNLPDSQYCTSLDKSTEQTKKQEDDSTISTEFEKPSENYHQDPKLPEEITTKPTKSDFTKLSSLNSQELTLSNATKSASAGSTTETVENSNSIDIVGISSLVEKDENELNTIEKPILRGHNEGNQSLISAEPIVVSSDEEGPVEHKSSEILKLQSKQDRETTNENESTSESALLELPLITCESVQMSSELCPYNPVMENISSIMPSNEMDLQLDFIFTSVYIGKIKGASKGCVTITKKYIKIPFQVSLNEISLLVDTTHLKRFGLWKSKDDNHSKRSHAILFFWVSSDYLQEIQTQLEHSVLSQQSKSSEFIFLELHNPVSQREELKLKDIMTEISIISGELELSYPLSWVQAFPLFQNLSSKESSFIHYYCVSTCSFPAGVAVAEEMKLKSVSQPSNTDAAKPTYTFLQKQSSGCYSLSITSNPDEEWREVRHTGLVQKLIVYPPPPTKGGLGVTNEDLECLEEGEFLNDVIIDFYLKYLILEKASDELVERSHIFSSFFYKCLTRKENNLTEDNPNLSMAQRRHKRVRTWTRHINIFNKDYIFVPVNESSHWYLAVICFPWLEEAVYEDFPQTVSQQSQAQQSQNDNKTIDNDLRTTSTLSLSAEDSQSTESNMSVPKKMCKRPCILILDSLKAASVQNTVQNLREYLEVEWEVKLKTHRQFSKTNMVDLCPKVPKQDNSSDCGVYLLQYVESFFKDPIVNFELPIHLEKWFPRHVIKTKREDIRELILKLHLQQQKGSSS

CAAX prenyl protease 2 [7] = target: T6, CAAX prenyl protease 2 (Saccharomyces cerevisiae S288c, UniProt Q03530); format: biochemical
T6 sequence (Q03530 whole entry): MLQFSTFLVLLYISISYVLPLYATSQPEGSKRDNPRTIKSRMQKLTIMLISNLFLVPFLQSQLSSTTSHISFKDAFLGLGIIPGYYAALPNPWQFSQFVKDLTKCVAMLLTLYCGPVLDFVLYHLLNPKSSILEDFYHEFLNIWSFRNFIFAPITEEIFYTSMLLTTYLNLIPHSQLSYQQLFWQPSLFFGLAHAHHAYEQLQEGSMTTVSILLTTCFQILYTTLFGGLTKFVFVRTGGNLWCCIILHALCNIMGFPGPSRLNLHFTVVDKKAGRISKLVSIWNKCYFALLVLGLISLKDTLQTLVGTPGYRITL

Trypsin = Trypsin (Sus scrofa, UniProt P00761); assay: porcine trypsin inhibitors, dose response, selectivity assay for Rce1 protease inhibitor project, biochemical, quenched peptide fluorescence, cherry-pick (AID 488789)
Trypsin, sequence (P00761 whole entry): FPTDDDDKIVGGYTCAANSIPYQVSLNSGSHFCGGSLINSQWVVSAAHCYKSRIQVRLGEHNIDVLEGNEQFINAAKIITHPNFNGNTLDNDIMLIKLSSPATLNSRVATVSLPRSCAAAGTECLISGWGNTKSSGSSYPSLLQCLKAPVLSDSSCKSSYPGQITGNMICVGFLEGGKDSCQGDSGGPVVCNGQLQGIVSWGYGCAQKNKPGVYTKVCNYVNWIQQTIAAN

CAAX prenyl protease 2 [8] = target: T7, CAAX prenyl protease 2 (Homo sapiens, UniProt Q9Y256); assay: human Rce1 protease inhibitors, dose response, biochemical, yeast membranes, quenched-peptide fluorescence, cherry-pick (AID 588849)
T7 sequence (Q9Y256 whole entry): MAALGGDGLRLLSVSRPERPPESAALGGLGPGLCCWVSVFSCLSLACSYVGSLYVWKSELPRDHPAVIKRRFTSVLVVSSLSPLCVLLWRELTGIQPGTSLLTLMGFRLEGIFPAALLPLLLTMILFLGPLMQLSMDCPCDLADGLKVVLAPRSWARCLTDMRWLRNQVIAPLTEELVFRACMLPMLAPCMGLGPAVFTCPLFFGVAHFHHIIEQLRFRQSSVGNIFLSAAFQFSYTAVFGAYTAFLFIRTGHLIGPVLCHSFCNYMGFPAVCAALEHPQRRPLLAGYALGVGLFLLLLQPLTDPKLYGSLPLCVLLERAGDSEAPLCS

Cytochrome P450 1A2 = target: T8, Cytochrome P450 1A2 (Homo sapiens, UniProt P05177);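 note: PubChem cytochrome P450 panel assay, CYP1A2 panel member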
T8 sequence (P05177 whole entry): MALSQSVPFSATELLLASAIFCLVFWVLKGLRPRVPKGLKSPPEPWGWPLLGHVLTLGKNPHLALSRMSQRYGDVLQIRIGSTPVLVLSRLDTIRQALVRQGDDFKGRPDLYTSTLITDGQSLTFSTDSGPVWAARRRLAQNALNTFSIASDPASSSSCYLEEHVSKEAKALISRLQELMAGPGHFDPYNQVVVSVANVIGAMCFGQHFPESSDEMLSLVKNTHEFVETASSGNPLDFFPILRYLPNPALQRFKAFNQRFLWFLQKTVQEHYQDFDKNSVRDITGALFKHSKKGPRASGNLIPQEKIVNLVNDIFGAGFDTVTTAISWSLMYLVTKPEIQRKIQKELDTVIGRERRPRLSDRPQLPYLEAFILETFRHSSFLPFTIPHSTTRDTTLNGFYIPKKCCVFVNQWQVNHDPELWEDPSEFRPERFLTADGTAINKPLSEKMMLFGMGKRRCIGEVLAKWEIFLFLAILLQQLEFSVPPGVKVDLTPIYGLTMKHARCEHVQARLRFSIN

Cytochrome P450 2C19 = Cytochrome P450 2C19 (Homo sapiens, UniProt P33261); assay: Cytochrome panel assay with activity outcomes. Panel member name: p450-cyp2c19 Compounds with AC50 equal or less than 10 uM are considered active; format: functional; settings: read-out: AC50
Cytochrome P450 2C19, sequence (P33261 whole entry): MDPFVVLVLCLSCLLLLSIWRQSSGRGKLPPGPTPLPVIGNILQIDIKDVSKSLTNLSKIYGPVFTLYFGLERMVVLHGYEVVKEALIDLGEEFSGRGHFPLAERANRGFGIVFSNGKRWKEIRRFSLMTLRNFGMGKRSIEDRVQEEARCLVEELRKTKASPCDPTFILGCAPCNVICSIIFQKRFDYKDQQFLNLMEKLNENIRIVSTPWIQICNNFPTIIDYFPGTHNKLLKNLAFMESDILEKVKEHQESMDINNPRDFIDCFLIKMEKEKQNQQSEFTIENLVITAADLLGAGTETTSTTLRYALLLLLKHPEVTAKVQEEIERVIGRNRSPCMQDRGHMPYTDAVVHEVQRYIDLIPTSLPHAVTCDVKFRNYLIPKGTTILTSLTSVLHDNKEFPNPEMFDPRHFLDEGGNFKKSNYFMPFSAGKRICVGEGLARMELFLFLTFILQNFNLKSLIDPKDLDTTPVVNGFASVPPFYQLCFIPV

Cytochrome P450 2D6 = Cytochrome P450 2D6 (Homo sapiens, UniProt P10635);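 note: CYP2D6 member of a cytochrome P450 panel assay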
Cytochrome P450 2D6, sequence (P10635 whole entry): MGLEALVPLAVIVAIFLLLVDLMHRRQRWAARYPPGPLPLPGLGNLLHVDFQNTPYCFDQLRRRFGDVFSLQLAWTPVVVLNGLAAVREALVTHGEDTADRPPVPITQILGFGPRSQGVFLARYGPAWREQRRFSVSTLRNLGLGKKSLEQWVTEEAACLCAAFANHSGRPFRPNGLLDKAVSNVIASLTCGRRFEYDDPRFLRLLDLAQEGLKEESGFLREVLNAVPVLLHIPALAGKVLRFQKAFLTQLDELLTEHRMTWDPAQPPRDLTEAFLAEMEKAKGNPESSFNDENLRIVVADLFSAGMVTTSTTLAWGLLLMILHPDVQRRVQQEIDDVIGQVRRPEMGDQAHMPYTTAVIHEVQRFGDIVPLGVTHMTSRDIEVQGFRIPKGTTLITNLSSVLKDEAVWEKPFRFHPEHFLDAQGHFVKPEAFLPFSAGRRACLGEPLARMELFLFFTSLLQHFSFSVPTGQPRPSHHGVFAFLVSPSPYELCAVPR

CC1=NN=C(c2ccc(N)cc2)c2cc3c(cc2C1)OCO3
AC50 [1]: 35.5 µM (inconclusive) | EC50 [2]: 76.1 µM (inactive) | EC50 (Mu-type opioid receptor): 92.5 µM (inactive)

C[C@H](O)C(=O)C1=Nc2c(nc(N)[nH]c2=O)NC1 [SEPIAPTERIN]
AC50 [1]: 28.2 µM (inconclusive) | AC50 (Cytochrome P450 3A4): 0.316 µM (inconclusive)

CCOC(=O)c1ccc2[nH]c3ccccc3c2c1
IC50 [3]: > 67.5 µM (inactive) | IC50 (HEK293): > 67.5 µM (inactive)

Cc1ccc(NC(=O)c2cccc3cccnc23)cc1
IC50 (Caspase-3): 32.5 µM (active) | IC50 [4]: 24.3 µM (active) | IC50 [5]: 31.3 µM (active) | IC50 [6]: 8.6 µM (active)

CC1(C(=O)N(CC(=O)NC2CCCC2)Cc2ccco2)CC(=O)N=C2C=CC=CN21 (stereo unspecified)
AC50 (CAAX prenyl protease 2 [7]): 4.64 µM (active) | AC50 (Trypsin): 4.21 µM (active) | AC50 (CAAX prenyl protease 2 [8]): 3.19 µM (active)

Cc1ccc(/N=C/c2c(O)oc3ccccc3c2=O)c(C)c1
IC50 (Caspase-3): 95 µM (active) | IC50 [4]: > 100 µM (inactive) | IC50 [5]: > 100 µM (inactive) | IC50 [6]: > 100 µM (inactive)

CC1Cc2ccccc2N1C(=O)CSCC(=O)O (stereo unspecified)
AC50 (Cytochrome P450 1A2): 20 µM (inconclusive) | AC50 (Cytochrome P450 2C19): 11.2 µM (inconclusive) | AC50 (Cytochrome P450 2D6): inconclusive

Nc1ncnc2c1ncn2C1C=C(CO)C(O)C1O (stereo unspecified)
IC50 [3]: > 67.7 µM (inactive) | IC50 (HEK293): > 2.51 µM (active)

O=C(Nc1cc(C(=O)Nc2ccc(S(=O)(=O)O)cc2S(=O)(=O)O)cc(C(=O)Nc2ccc(S(=O)(=O)O)cc2S(=O)(=O)O)c1)Nc1cc(C(=O)Nc2ccc(S(=O)(=O)O)cc2S(=O)(=O)O)cc(C(=O)Nc2ccc(S(=O)(=O)O)cc2S(=O)(=O)O)c1
AC50 [1]: 35.5 µM (inconclusive) | AC50 (Cytochrome P450 1A2): 31.6 µM (inconclusive) and 39.8 µM (inconclusive)

C=CCOC(=O)C1=C(C)OC(N)=C(C#N)C1c1ccco1 (stereo unspecified)
IC50 [3]: > 67.5 µM (inactive) | IC50 (HEK293): > 67.5 µM (inactive)

Cc1nc2cc(NC(=O)c3ccc(Br)s3)ccc2s1
IC50 (Caspase-3): 19.7 µM (active) | IC50 [4]: > 100 µM (inactive) | IC50 [5]: > 100 µM (inactive) | IC50 [6]: 4.08 µM (active)
